Experimental data as given in PMC3361267 (Journal of Medicinal Chemistry, 2012).

Columns and labels:
[1] = cited from earlier work
[2] = target: T1, OATP1B1 (Homo sapiens, UniProt Q9Y6L6); test: Transport kinetics of substrate uptake in OATP1B1-HEK293 cells; format: cell-based; conditions: OATP1B1 mediated uptake
T1 sequence (Q9Y6L6 1-691): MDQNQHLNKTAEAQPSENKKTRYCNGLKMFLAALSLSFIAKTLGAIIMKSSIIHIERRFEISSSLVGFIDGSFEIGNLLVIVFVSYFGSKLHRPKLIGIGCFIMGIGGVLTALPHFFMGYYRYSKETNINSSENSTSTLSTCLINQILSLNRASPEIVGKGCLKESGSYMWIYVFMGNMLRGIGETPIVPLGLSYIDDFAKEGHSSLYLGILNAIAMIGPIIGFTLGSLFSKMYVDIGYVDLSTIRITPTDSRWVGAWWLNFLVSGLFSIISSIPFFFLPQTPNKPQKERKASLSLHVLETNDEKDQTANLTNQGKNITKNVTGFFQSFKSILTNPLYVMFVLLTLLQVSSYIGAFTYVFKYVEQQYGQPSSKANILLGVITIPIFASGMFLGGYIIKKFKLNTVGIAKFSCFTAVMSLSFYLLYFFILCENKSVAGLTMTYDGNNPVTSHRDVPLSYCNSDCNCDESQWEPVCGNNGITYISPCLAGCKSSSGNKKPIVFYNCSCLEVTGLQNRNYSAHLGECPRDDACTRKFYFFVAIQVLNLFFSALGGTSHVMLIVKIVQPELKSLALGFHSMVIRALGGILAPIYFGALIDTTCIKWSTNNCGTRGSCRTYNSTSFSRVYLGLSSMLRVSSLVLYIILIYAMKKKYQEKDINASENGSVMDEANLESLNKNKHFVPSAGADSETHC

[3] = target: T2, OATP1B3 (Homo sapiens, UniProt Q9NPD5)
T2 sequence (Q9NPD5 1-702): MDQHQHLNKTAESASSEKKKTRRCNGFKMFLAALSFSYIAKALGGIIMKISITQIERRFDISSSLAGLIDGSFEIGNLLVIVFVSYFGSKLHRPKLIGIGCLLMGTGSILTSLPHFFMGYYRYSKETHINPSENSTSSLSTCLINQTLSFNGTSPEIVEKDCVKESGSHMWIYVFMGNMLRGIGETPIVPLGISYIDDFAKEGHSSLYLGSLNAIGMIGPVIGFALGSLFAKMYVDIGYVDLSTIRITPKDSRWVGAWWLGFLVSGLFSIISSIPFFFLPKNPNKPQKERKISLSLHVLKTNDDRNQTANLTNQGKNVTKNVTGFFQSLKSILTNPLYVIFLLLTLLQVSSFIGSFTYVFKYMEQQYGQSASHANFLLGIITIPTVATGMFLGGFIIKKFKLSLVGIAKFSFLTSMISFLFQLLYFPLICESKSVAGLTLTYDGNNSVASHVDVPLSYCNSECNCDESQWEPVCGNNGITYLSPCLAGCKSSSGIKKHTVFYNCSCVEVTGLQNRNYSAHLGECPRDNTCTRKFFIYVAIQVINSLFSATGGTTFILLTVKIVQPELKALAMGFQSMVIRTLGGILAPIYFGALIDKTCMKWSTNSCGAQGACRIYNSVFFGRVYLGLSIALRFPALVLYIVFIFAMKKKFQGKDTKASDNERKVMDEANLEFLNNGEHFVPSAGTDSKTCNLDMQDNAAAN

Structure (SMILES) | increase of atorvastatin AUC [1] | Km [2] | Vmax [2] | Vmax/Km [3]
CC[C@H]1OC(=O)[C@H](C)[C@@H](O[C@H]2C[C@@](C)(OC)[C@@H](O)[C@H](C)O2)[C@H](C)[C@@H](O[C@@H]2O[C@H](C)C[C@H](N(C)C)[C@H]2O)[C@](C)(OC)C[C@@H](C)C(=O)[C@H](C)[C@@H](O)[C@]1(C)O [clarithromycin, Clarithromycin] | 4.5 fold |  |  | 
C[C@]12CC[C@@H]3c4ccc(O)cc4CC[C@H]3[C@@H]1CC[C@@H]2O[C@@H]1O[C@H](C(=O)O)[C@@H](O)[C@H](O)[C@H]1O [estradiol-17β-glucuronide] |  | 12.2 ± 5.94 µM | 15.44 ± 3.44 pmol/mg protein/min | 0.86 μL/mg protein/min
